Experimental data from patent publication US5541116A, “Method for the stabilization of endogenous, physiologically active peptides” (B.R.A.H.M.S. Diagnostica GmbH, priority 1991, dated 1996).
Read-outs that look alike come from different tables or passages of the source. Where a SMILES comes first, the peptide text is derived from it. [ ]: non-standard residue; d: D form. The star is where a group is joined. Sta = CC(C)C[C@H](N)[C@@H](O)CC(=O)O; Isovaleryl = CC(C)CC(=O)*

Tests used:
[1] = test system: endogenous proteases which are active in human serum and plasma; assay: Hydrolysis of 125I-ACTH 1-39 in human serum or EDTA plasma with protease inhibitors (RP-HPLC, radioactivity detection); assay type: biochemical
[2] = test system: endogenous proteases which are active in human serum and plasma; assay: Variation of inhibitor concentrations to find the minimum needed for adequate protection of the peptides; assay type: biochemical; details: in the presence of the other inhibitors; serum or plasma sample
Description: To determine the concentrations of the individual inhibitors which are required for adequate protection of the peptides, in the presence of the other inhibitors, the concentrations were repeatedly varied.

[3] = 125I-ACTH 1-39, inhibitor 1 mM, EDTA plasma, 22° C., 25 h
[4] = 125I-ACTH 1-39, inhibitor 1 mM, serum, 22° C., 18 h
[5] = 125I-ACTH 1-39, inhibitor 100 μM, EDTA plasma, 22° C., 25 h
[6] = 125I-ACTH 1-39, inhibitor 100 μM, serum, 22° C., 18 h

Antithrombin III
% of hydrolysis rate of the control, in EDTA plasma ([1]; 125I-ACTH 1-39, inhibitor 0.1 unit/ml, EDTA plasma, 22° C., 25 h): 79%
% of hydrolysis rate of the control, in serum ([1]; 125I-ACTH 1-39, inhibitor 0.1 unit/ml, serum, 22° C., 18 h): 107%

Heparin
% of hydrolysis rate of the control, in EDTA plasma ([1]; 125I-ACTH 1-39, inhibitor 5 mg/ml, EDTA plasma, 22° C., 25 h): 103%
% of hydrolysis rate of the control, in serum ([1]; 125I-ACTH 1-39, inhibitor 5 mg/ml, serum, 22° C., 18 h): 126%

O=S(=O)(F)Cc1ccccc1 [Phenylmethylsulphonyl fluoride]
% of hydrolysis rate of the control, in EDTA plasma [1]: 100
% of hydrolysis rate of the control, in serum [1]: 97

CCN1C(=O)C=CC1=O [N-Ethylmaleimide]
% of hydrolysis rate of the control, in EDTA plasma ([1]; 125I-ACTH 1-39, inhibitor 2 mM, EDTA plasma, 22° C., 25 h): 54%
% of hydrolysis rate of the control, in serum ([1]; 125I-ACTH 1-39, inhibitor 2 mM, serum, 22° C., 18 h): 48%

CC(=O)N[C@@H](CC(C)C)C(=O)N[C@@H](CC(C)C)C(=O)N[C@H](C=O)CCCNC(=N)N [Leupeptin]
% of hydrolysis rate of the control, in EDTA plasma [1]: 27
% of hydrolysis rate of the control, in serum [1]: 41
minimum concentration present in the sample for effective protection [2]: 50 µM

CC(C)C[C@H](NC(=O)[C@@H](O)[C@H](N)Cc1ccccc1)C(=O)O [Bestatin]
% of hydrolysis rate of the control, in EDTA plasma [1, 3]: 27%
% of hydrolysis rate of the control, in serum [1, 4]: 44%

O=S(=O)(O)c1cc[c]([Hg][Cl])cc1 [p-Choloromercuryphenylsulphonic acid, p-Choloromercury-phenylsulphonic acid]
% of hydrolysis rate of the control, in EDTA plasma [1]: 62
% of hydrolysis rate of the control, in serum [1]: 94

N=C(N)c1ccccc1 [Benzamidine]
% of hydrolysis rate of the control, in EDTA plasma [1, 3]: 80%
% of hydrolysis rate of the control, in serum [1, 4]: 84%

CC(C)C[C@@H](N)[C@H](O)C(=O)N[C@H](C(=O)N[C@H](C(=O)N[C@@H](CC(=O)O)C(=O)O)C(C)C)C(C)C [Amastatin]
% of hydrolysis rate of the control, in EDTA plasma [1, 5]: 3%
% of hydrolysis rate of the control, in serum [1, 6]: 17%

CC(C)C[C@H](NP(=O)(O)O[C@@H]1O[C@@H](C)[C@H](O)[C@@H](O)[C@H]1O)C(=O)N[C@@H](Cc1c[nH]c2ccccc12)C(=O)O [Phosphoramidone]
% of hydrolysis rate of the control, in EDTA plasma [1, 3]: 85%
% of hydrolysis rate of the control, in serum [1, 4]: 98%

CC(C)C[C@H](NC(=O)N[C@H](C(=O)N[C@@H](CCC(N)=O)C(=O)N[C@@H](C)C=O)[C@@H]1CCNC(=N)N1)C(=O)O [Elastatinal]
% of hydrolysis rate of the control, in EDTA plasma [1, 5]: 100%
% of hydrolysis rate of the control, in serum [1, 6]: 97%

CC(C)CC(=O)N[C@H](C(=O)N[C@H](C(=O)N[C@@H](CC(C)C)[C@@H](O)CC(=O)N[C@@H](C)C(=O)N[C@@H](CC(C)C)[C@@H](O)CC(=O)O)C(C)C)C(C)C [Pepstatin] (Isovaleryl-VV[Sta]A[Sta]-OH)
% of hydrolysis rate of the control, in EDTA plasma [1, 5]: 79%
% of hydrolysis rate of the control, in serum [1, 6]: 105%

B1: Trypsin inhibitor (soybean): soybean trypsin inhibitor (Sigma T-900) (protein, UniProt P01070 25-205, looked up)
Trypsin inhibitor A: DFVLDNEGNPLENGGTYYILSDITAFGGIRAAPTGNERCPLTVVQSRNELDKGIGTIISSPYRIRFIAEGHPLSLKFDSFAVIMLCVGIPTEWSVVEDLPEGPAVKIGENKDAMDGWFRLERVSDDEFNNYKLVFCPQQAEDDKCGDIGISIDHDDGTRRLVVSKNKPLVVQFQKLDKESL
% of hydrolysis rate of the control, in EDTA plasma ([1]; 125I-ACTH 1-39, inhibitor 0.1 mg/ml, EDTA plasma, 22° C., 25 h): 71%
% of hydrolysis rate of the control, in serum ([1]; 125I-ACTH 1-39, inhibitor 0.1 mg/ml, serum, 22° C., 18 h): 78%
